In US20140356854A1, “METHODS AND COMPOSITIONS RELATING TO MEVALONATE PHOSPHATE DECARBOXYLASE” (Salk Institute for Biological Studies, priority 2013, published 2014):
“And” between values parts separate entries of the source, which are not always exact repeats. Equal values may be shown once. Read-outs that look alike come from different tables or passages of the source.

Columns and labels:
IPK from B. floridae = IPK from B. floridae (Branchiostoma floridae, UniProt A0A9J7KY69); assay: Steady-state kinetics, coupled assay, IPK
IPK from A. thaliana = IPK from A. thaliana (Arabidopsis thaliana, UniProt Q8H1F7); assay: Kinetics, coupled assay, IPK
IPK from M. maripaludis = IPK from M. maripaludis (Methanococcus maripaludis, UniProt Q6LWR2); assay: Steady-state kinetics, coupled pyruvate kinase-lactate dehydrogenase assay, IPK
[1] = system: MDD homolog from R. castenholzii; assay: Steady-state kinetics, MDD homolog tested as MDD; format: biochemical
Procedure: (§1) Instead, it behaves as an MPD and catalyzes the decarboxylation of MVAP (3) to IP (4) with a kcat of 0.94 s^−1 and an apparent KM for MVAP of 1.150 mM (Table 2). This enzyme, by sequence homologous to MDD, has acquired an unexpected new function as a bona fide MPD playing the role of the long sought MPD of the alternative MVA pathway.
(§2) Steady-state kinetic analyses.

MDD from S. solfataricus = MDD from S. solfataricus (Saccharolobus solfataricus, UniProt Q97UL5); assay: Steady-state kinetics, MDD; format: biochemical; conditions: steady state conditions, kinetic parameters could not be assigned
Chain of MDD from S. solfataricus (Q97UL5 whole entry): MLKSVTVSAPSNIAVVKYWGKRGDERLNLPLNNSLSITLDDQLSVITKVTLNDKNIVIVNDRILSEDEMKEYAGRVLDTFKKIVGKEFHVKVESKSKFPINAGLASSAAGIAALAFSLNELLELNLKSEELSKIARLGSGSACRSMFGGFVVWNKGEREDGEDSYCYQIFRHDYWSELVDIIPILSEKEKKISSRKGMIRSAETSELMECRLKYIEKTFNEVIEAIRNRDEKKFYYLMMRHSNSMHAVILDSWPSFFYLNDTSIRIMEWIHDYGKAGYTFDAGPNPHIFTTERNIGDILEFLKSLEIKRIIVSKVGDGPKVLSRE

MDD from B. floridae = MDD from B. floridae (Branchiostoma floridae, UniProt C3ZGP5); assay: Steady-state kinetics, coupled assay, MDD; format: biochemical; conditions: substrate MVAPP
Chain of MDD from B. floridae (C3ZGP5 1-409): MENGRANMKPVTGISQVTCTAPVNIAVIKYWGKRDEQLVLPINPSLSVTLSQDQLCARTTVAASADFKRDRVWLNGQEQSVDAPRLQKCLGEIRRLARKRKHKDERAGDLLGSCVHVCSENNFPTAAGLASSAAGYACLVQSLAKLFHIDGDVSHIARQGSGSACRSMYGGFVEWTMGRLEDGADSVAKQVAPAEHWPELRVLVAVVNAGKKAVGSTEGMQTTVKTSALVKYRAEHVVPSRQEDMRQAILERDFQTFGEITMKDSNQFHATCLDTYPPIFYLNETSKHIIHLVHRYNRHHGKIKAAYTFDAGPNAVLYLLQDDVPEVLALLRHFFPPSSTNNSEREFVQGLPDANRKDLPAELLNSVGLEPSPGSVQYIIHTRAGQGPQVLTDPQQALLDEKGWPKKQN

[2] = system: MPD from R. castenholzii (SEQ ID NO: 1); assay: Steady-state kinetics, coupled assay, MPD; format: biochemical
Procedure: as §1, §2

[3] = system: IPK and MDD from B. floridae; assay: GC-MS in vitro alternative MVA pathway reaction; format: biochemical
Excerpt: (§3) The in vitro classical MVA pathway reactions for S. solfataricus, A. thaliana, and B. floridae yield 39.2%, 48.7%, and 52.1% conversion of MVAP (3) to 5-EA (6), respectively (FIG. 3). The in vitro classical MVA pathway reaction from R. castenholzii (using B. floridae PMK to complete the missing step) yields less then 0.2% conversion to 5-EA (FIG. 3). In contrast, the in vitro alternative MVA pathway from R. castenholzii enzymes yields a 2.0% conversion of MVAP (3) to 5-EA (6). B. floridae, A. thaliana, and S. solfataricus were tested for a possible alternative MVA pathway components using their IPKs and MDDs.
(§4) All GC-MS assays were carried out in two steps. First, 1 μM of each of two enzymes (PMK and MDD for the classical MVA pathway, MDD and IPK for the alternative MVA pathway) was incubated for 30 min with 500 μM (RS)-MVAP, 4 mM ATP, and 10 mM MgCl2 buffered with 50 mM Tris-HCl, pH 8.0. Second, 40 μl of this reaction was transferred to a glass vial containing 10 mM MgCl2 buffered with 50 mM Tris-HCl, pH 8.0, containing at least a 150-fold excess of each of the following enzymes: E. coli isopentenyl diphosphate isomerase (IPPI), E. coli farnesyl diphosphate synthase (FPPS), and tobacco 5-epi-aristolochene synthase (TEAS). This reaction mixture was overlaid with ethyl acetate, incubated overnight, and vortexed to extract hydrocarbons from the aqueous layer. GC-MS assays were performed as previously described (18). All values were compared to a control reaction, where FPP was added in place of MVA pathway enzymes at an appropriate concentration to simulate complete turnover of MVAP.

[4] = system: IPK and MDD from A. thaliana; assay: GC-MS in vitro alternative MVA pathway reaction; format: biochemical
Excerpt: as §3, §4

[5] = system: IPK and MDD from S. solfataricus; assay: GC-MS in vitro alternative MVA pathway reaction; format: biochemical
Excerpt: as §3, §4

[6] = system: PMK and MDD from B. floridae; assay: GC-MS in vitro classical MVA pathway reaction; format: biochemical; conditions: B. floridae enzymes, 500 μM (RS)-MVAP, relative to FPP control
Procedure: (§5) GC-MS quantification of fully functional alternative and classical MVA pathways. To confirm that the functional R. castenholzii MPD (MDD-like protein sequence) catalyzes the transformation of MVAP (3) to IP (4) in a reconstituted in vitro pathway, a five-enzyme in vitro reaction mixture was assembled. Briefly, MVAP (3) and ATP were incubated for 30 min with MPD and IPK from R. castenholzii. The reaction mixture was then diluted into a mixture containing all necessary downstream enzymes to biosynthesize the GC-detectable sesquiterpene 5-epi-aristolochene (5-EA, 6). Similar reactions were performed for the in vitro reconstitution of the classical MVA pathway using PMK and MDD from each respective organism.
as §4

[7] = system: PMK and MDD from S. solfataricus; assay: GC-MS in vitro classical MVA pathway reaction; format: biochemical; conditions: S. solfataricus enzymes, 500 μM (RS)-MVAP, relative to FPP control
Procedure: as §5, §4

[8] = system: PMK and MDD from A. thaliana; assay: GC-MS in vitro classical MVA pathway reaction; format: biochemical; conditions: A. thaliana enzymes, 500 μM (RS)-MVAP, relative to FPP control
Procedure: as §5, §4

[9] = system: R. castenholzii MDD homolog with B. floridae PMK; format: biochemical
PMK from B. floridae = PMK from B. floridae (Branchiostoma floridae, UniProt C3Y1G0); assay: Steady-state kinetics, coupled assay, PMK; format: biochemical; conditions: substrate MVAP
Chain of PMK from B. floridae (C3Y1G0 1-201): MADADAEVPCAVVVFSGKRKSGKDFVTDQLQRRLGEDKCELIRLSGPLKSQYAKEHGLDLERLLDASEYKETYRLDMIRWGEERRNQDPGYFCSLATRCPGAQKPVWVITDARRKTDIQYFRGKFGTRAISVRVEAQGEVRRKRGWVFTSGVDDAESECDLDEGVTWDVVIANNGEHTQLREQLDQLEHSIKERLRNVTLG

MJ0403 = MJ0403 (Methanocaldococcus jannaschii, UniProt Q57846); assay: In vitro decarboxylase activity of MJ0403; format: biochemical, M. jannaschii
Chain of MJ0403 (Q57846 whole entry): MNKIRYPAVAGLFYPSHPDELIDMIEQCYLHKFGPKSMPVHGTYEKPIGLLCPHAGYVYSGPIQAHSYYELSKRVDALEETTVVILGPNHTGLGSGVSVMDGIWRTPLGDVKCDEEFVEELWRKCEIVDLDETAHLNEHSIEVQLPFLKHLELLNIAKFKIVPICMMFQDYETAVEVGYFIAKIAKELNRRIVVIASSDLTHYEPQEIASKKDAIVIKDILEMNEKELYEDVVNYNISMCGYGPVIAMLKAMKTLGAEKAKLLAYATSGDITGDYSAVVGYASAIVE
Excerpt: MJ0403 encodes a protein that is similar in sequence to subunit B of class III extradiol ring-cleavage dioxygenases and is also homologous to the human protein MEMO (mediator of erbB2-driven cell motility).

[10] = system: MPD and IPK from R. castenholzii; assay: GC-MS in vitro alternative MVA pathway reaction; format: biochemical
Procedure: as §5
All GC-MS assays were carried out in two steps. First, 1 μM of each of two enzymes (PMK and MDD for the classical MVA pathway, MDD and IPK for the alternative MVA pathway) was incubated for 30 min with 500 μM (RS)-MVAP, 4 mM ATP, and 10 mM MgCl2 buffered with 50 mM Tris-HCl, pH 8.0. Second, 40 μl of this reaction was transferred to a glass vial containing 10 mM MgCl2 buffered with 50 mM Tris-HCl, pH 8.0, containing at least a 150-fold excess of each of the following enzymes: E. coli isopentenyl diphosphate isomerase (IPPI), E. coli farnesyl diphosphate synthase (FPPS), and tobacco 5-epi-aristolochene synthase (TEAS). […]

PMK from S. solfataricus = PMK from S. solfataricus (Saccharolobus solfataricus, UniProt Q97UL6); assay: Steady-state kinetics, coupled assay, PMK; format: biochemical
Chain of PMK from S. solfataricus (Q97UL6 whole entry): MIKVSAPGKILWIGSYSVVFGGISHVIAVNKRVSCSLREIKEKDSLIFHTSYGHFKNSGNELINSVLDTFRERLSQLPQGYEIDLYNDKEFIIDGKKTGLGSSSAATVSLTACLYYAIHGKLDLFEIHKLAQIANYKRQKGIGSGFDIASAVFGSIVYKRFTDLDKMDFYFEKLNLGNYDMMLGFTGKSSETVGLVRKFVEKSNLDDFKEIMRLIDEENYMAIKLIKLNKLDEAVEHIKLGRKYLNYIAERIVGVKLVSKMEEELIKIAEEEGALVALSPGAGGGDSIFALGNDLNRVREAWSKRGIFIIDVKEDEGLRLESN

[11] = substrate: CC(O)(CCOP(=O)(O)OP(=O)(O)O)CC(=O)O; assay: purified protein, by the assay type; conditions: other: substrate MVAPP; A. thaliana MDD
[12] = substrate: CC(O)(CCOP(=O)(O)O)CC(=O)O; assay: purified protein, by the assay type; conditions: other: substrate MVAP; A. thaliana PMK
[13] = substrate: C=C(C)CCOP(=O)(O)O; assay: purified protein, by the assay type; conditions: other: substrate IP

Molecule: C=C(C)CCOP(=O)(O)O [IP, isopentenyl phosphate]
- Ki (IPK from B. floridae): 2820 µM
- Ki (IPK from A. thaliana): 522 µM
- Ki (IPK from M. maripaludis): 877 µM

Molecule: CC(O)(CCOP(=O)(O)OP(=O)(O)O)CC(=O)O (racemic) [MVAPP, diphosphomevalonate]
- decarboxylation of MVAPP to IPP at a measurable rate [1]: does not catalyze
- rate of decarboxylation of MVAPP (MDD from S. solfataricus): very slow rate
- Km (MDD from B. floridae): 15.1 µM
- kcat (MDD from B. floridae): 1.36 (±0.09) s^−1

Molecule: CC(O)(CCOP(=O)(O)O)CC(=O)O (stereo not shown) [MVAP, phosphomevalonate]
- Km ([2]; decarboxylation of MVAP to IP, read-out: apparent KM for MVAP): 1150 µM
- kcat ([2]; substrate MVAP): 0.94 s^−1 and 0.94 (±0.08) s^−1
- Km ([2]; substrate MVAP, read-out: KM): 1150 µM
- 5-EA formation [3]: do not yield any detectable 5-EA
- 5-EA formation [4]: do not yield any detectable 5-EA
- 5-EA formation [5]: do not yield any detectable 5-EA
- conversion of MVAP to 5-EA [6]: 52.1%
- conversion of MVAP to 5-EA [7]: 39.2%
- conversion of MVAP to 5-EA [8]: 48.7%
- conversion to 5-EA [9]: < 0.2%
- kcat (PMK from B. floridae): 12.6 (±0.4) s^−1
- turnover of MVAP (decarboxylase activity) (MJ0403): failed to show any turnover
- conversion of MVAP to 5-EA [10]: 2.0%
- Ki (PMK from S. solfataricus): 5500 µM
- kcat (PMK from S. solfataricus; substrate MVAP, S. solfataricus PMK): 1.98 (±0.10) s^−1

B1: MDD from A. thaliana (Arabidopsis thaliana) (protein)
chain: MAEEKWVVMVTAQTPTNIAVIKYWGKRDEVRILPINDSISVTLDPDHLCTLTTVAVSPSFDRDRMWLNGKEISLSGSRYQNCLREIRSRADDVEDKEKGIKIAKKDWEKLHLHIASHNNFPTAAGLASSAAGFACLVFALAKLMNVNEDPSQLSAIARQGSGSACRSLFGGFVKWNMGNKEDGSDSVAVQLVDDKHWDDLVIIIAVVSSRQKETSSTSGMRESVETSLLLQHRAKEVVPVRILQMEEAIKNRDFTSFTKLTCSDSNQFHAVCMDTSPPIFYMNDTSHRIISLVEKWNRSAGTPEIAYTFDAGPNAVMIARNRKVAVELLQGLLYCFPPKPDTDMKSYVLGDTSIVKEAGLEGELPQGIKDKIGSQDQKGEVSYFICSRPGRGPVVLQDQTQALLHPQTGLPK
- Km [11]: 15.7 (±5.0) μM
- kcat [11]: 2.02 ± 0.13 s⁻¹
- kcat/Km [11]: 130000 ± 40000 M⁻¹ s⁻¹

B2: PMK from A. thaliana (Arabidopsis thaliana) (protein)
chain: MAVVASAPGKVLMTGGYLVLEKPNAGLVLSTNARFYAIVKPINEEVKPESWAWKWTDVKLTSPQLSRESMYKLSLNHLTLQSVSASDSRNPFVEHAIQYAIAAAHLATEKDKESLHKLLLQGLDITILGSNDFYSYRNQIESAGLPLTPESLGTLAPFASITFNAAESNGANSKPEVAKTGLGSSAAMTTAVVAALLHYLGVVDLSDPCKEGKFGCSDLDVIHMIAQTSHCLAQGKVGSGFDVSCAVYGSQRYVRFSPEVLSFAQVAVTGLPLNEVIGTILKGKWDNKRTEFSLPPLMNLFLGEPGSGGSSTPSMVGAVKKWQMSDPEKARENWQNLSDANLELETKLNDLSKLAKDHWDVYLRVIKSCSVLTSEKWVLHATEPINEAIIKELLEAREAMLRIRILMRQMGEAASVPIEPESQTQLLDSTMSAEGVLLAGVPGAGGFDAIFAITLGDSGTKLTQAWSSHNVLALLVREDPHGVCLESGDPRTTCITSGVSSIHLE
- Km [12]: 11.8 (±2.0) μM
- kcat [12]: 20.9 ± 0.7 s⁻¹
- kcat/Km [12]: 1.77e+06 ± 310000 M⁻¹ s⁻¹

B3: IPK from M. maripaludis (Methanococcus maripaludis S2) (protein)
chain: MFAILKLGGSILCDKNIPYSINWENLENIAIEIKEAIEYYKSKNEEFKLIIVHGGGSFGHPVAKKYLKDGKFVDMGKGYWEIQKAMRKFNNIVIEELQNFEIPAVSIQASSFITFDNESNLHFDTNAVEKMLDKGLIPVIHGDIVIDEKTDNFKIFSGDHALPFLSKKLNPDLSLHASDVDGVWDLNFKIIENINSKNIEDVLKSLKPSNKEDVTGGMHLKVMECYNLGIKTIIFNGNKKRNIYNALLKNVKGTLIN
- Km ([13]; M. maripaludis IPK): 21.4 (±4.3) μM
- kcat ([13]; M. maripaludis IPK): 15.2 s⁻¹
- kcat/Km ([13]; M. maripaludis IPK): 710000 M⁻¹ s⁻¹

B4: IPK from A. thaliana (Arabidopsis thaliana) (protein)
chain: MELNISESRSRSIRCIVKLGGAAITCKNELEKIHDENLEVVACQLRQAMLEGSAPSKVIGMDWSKRPGSSEISCDVDDIGDQKSSEFSKFVVVHGAGSFGHFQASRSGVHKGGLEKPIVKAGFVATRISVTNLNLEIVRALAREGIPTIGMSPFSCGWSTSKRDVASADLATVAKTIDSGFVPVLHGDAVLDNILGCTILSGDVIIRHLADHLKPEYVVFLTDVLGVYDRPPSPSEPDAVLLKEIAVGEDGSWKVVNPLLEHTDKKVDYSVAAHDTTGGMETKISEAAMIAKLGVDVYIVKAATTHSQRALNGDLRDSVPEDWLGTIIRFSK
- Km ([13]; A. thaliana IPK): 0.79 (±0.35) μM
- kcat ([13]; A. thaliana IPK): 1.9 s⁻¹
- kcat/Km ([13]; A. thaliana IPK): 2.4e+06 M⁻¹ s⁻¹

B5: IPK from B. floridae (Branchiostoma floridae) (protein)
chain: MVSSSRSKVMAEADASLECIVKLGGSAVTDKSTLETPRLDAIRAAADIISQVRGRCIVVHGAGSFGHFQAREHGVVWGYRDKETDTEVQTVKLGFCRTRQSVTKLLHIITEEFVRLGIPAVGVSPLSSWVTDDASVVKADTDNIRDMLLEGFLPVMHGDAVLDRKRGCTILSGDTIIKHLCSVFRPPRVVFLTDVPGIYDRPPEQPGAQLIPEIQVDRDRKLHVSIATSSQAHDVTGGIALKLKSAIDIVTESNGHTCVMVCGIQSQAAVRACVEGQLPQGTGTIVQLNISKHPDEVT
- Km ([13]; B. floridae IPK): 13.3 (±2.0) μM
- kcat ([13]; B. floridae IPK): 27.2 s⁻¹
- kcat/Km ([13]; B. floridae IPK): 2.05e+06 M⁻¹ s⁻¹

B6: IPK from T. adhaerens (Trichoplax adhaerens) (protein)
chain: MALENRHVDCIIKLGGSAITSKQHLEKANTQAINIAASHVHEMTRKCVIVHGAGSFGHFHAKKYNIATGFNDTDFEQQRIGFSQTRLSVTKLNHIIVQALIEKDVPAVSISPCGLWKTTDRSVTSTFLQPINDLLRAGFVPVVHGDAVIDTSLGCTILSGDTIIQILAENLCPKRIIFITDTNGIYDRPPHNDDAKLLRYISVTKDGKVTNEIETSQLEHDVTGGVQTKIASAAHIVSKCNIPVHVVKLGSAAAWKLLDKGELEESDIATTITLQESEYPK
- Km ([13]; T. adhaerens IPK): 3.1 (±1.6) μM
- kcat ([13]; T. adhaerens IPK): 2.4 s⁻¹
- kcat/Km ([13]; T. adhaerens IPK): 770000 M⁻¹ s⁻¹
